For one test, the target named is LTB4 receptor (Cavia porcellus, UniProt H0VYV8). Description: LTB4 receptor binding study. To be noted: 3H-LTB4, guinea-pig spleen membranes; for pIC50: read-out: Inh. of LTB4 rec. binding, IC50; for inhibition at 20 µM: read-out: Inh. of LTB4 rec. binding, %. As for the experimental part:
LTB4 Receptor Binding Study
A slightly modified method of Cheng and coworkers (Cheng J. B. et al.: J. Pharm. Expl. Ther. 236, 126 (1986)) was used. The membrane fraction was prepared from male guinea-pig spleen; 2 mg of membranes were incubated with 0.3 nM ^3 H-LTB4 at 25° C. for 30 min in 100 μl of the incubated mixture. The nonspecific binding was determined in the presence of 0.1 μM LTB4. The membranes were filtered though Whatman GF/C paper and washed triply with buffer. The radioactivity was measured by liquid scintillation spectrometry, and the specific binding of ^3 H-LTB4 to the receptor was determined.

The next test deals with male mice. Description: Inhibition of arachidonic acid-induced ear inflammation in mice. The following applies: Mus musculus, po, 1 h. The class given is in vivo. Here is the method: Inhibition of Arachidonic Acid-induced Ear Inflammation in Mice (Opas E. E. et al.: J. Invest. Dermatol. 84, 253 (1985) Ear inflammation was induced in male mice by 20 μl of arachidonic acid dissolved in acetone (concentration 100 mg/ml). The mice were sacrificed 1 h after application of arachidonic acid and the ears were cut off by standard means. The other, vehicle-treated ear of the same animal served as a control. The degree of ear hyperemia and the weight of ear lobes were evaluated. Test compounds were administered orally 1 h before the induction of inflammation.

Test [1] concerns peroxidation of lipids from the hepatic cells membranes. Briefly: Antioxidant effect in vitro. The following applies: at 100 μg. The class given is biochemical. From the text: Antioxidant Effect in vitro
The end-product, malonic dialdehyde, was transformed to coloured complex with thiobarbituric acid and determined spectrophotometrically. The antioxidant effect was expressed in % of peroxidation inhibition in the presence of the compound tested in comparison to a control sample.

The next test has as its system rats. Briefly: Inhibition of carrageenan-induced pleuritis in rats. The following applies: Rattus norvegicus, po, 4 h, dose 100 mg/kg, oral, values with mark n: p > 0.05. The class given is in vivo. As for the experimental part:
Inhibition of Carrageenan-induced Pleuritis in Rats
(Hidaka T. J.: Pharm. Pharmacol. 38, 242 (1986) 1 ml of 0.5% carrageenan solution in saline was administered intrapleurally to experimental animals under mild ether anesthesia. Test drugs were administered in single oral dose 1 h before carrageenan injection, 4 h following the carrageenan application the rats were killed and exudate was withdrawn from opened pleural cavity. The volume of exudate, its cellularity and total cell number were determined.

The next test deals with T1, LTD4 receptor (Cavia porcellus, UniProt Q2NNR5).
T1 construct: The membrane fraction was prepared from male guinea-pig lungs; from tissue; host or cells: male guinea-pig lung membranes
T1 sequence (Q2NNR5 1-340): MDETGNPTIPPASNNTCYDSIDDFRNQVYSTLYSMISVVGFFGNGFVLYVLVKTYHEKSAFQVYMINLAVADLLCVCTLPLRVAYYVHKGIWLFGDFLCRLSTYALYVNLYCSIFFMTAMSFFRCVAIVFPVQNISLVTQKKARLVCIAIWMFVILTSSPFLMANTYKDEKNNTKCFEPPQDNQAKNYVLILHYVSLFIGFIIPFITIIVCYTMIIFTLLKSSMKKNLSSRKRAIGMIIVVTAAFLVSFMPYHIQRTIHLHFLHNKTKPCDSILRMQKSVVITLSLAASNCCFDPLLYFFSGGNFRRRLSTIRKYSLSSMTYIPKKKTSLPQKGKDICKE
Description: LTD4 receptor binding study. To be noted: 3H-LTD4, guinea-pig lung membranes; for pIC50: read-out: Inh. of LTD4 rec. binding, IC50. As for the experimental part: LTD4 Receptor Binding Study
This study was performed according to the method of Burns and coworkers (Burns R. F. et al.: Life Sci. 33, 645 (1983)). The membrane fraction was prepared from male guinea-pig lungs, and 4 mg of this fraction were incubated with 0.4 nM ^3 H-LTD4 for 60 min at 25° C. in 100 μl of the incubated mixture. The nonspecific binding was determined in the presence of 0.1 μM LTD4. The filtration of the membranes, washing, and radioactivity measurement were as above.

A further test relates to Wistar-Han rats. Briefly: Inhibition of carrageenan edema. The class given is in vivo. The following applies: Rattus norvegicus, dose 100 mg/kg; read-out: CE: inhibition of carrageenan-induced edema, % of inh. (In general: In the carrageenan paw model, swelling and tenderness develop within hours.)
The subject of test [2] is LTB4 production in rat polymorphonuclear cells. Briefly: Ex vivo inhibition of LTB4 production (LTB4 biosynthesis). The class given is cell-based. To be noted: for Inh. of LTB4 biosynth., %: at 30 μg (%/μg); for IC50: Rattus norvegicus, read-out: Inh. of LTB4 biosynth., IC50. Here is the method:
Ex vivo Inhibition of LTB4 Production The production of LTB4 was determined in rat polymorphonuclear cells from pleural exudate elicited by heat-activated rat serum (Palmer R. M. J., Salmon J. A.: Immunology 50, 65 (1983)). The cells were stimulated with the Ca ionophore A 23187 (Sigma) and incubated with various concentrations of the drugs tested. The sample containing only buffer was used for the determination of unaffected biosynthesis; the complete inhibition was measured in a sample with 100 μg of NDGA in 1 ml. LTB4 was determined in supernatant using a commercial RIA kit (Amersham).

The mark [3] stands for this setting: values with mark n: p > 0.05, read-out: Ear edema, D: edema of ear lobe, % of inh.
[4] abbreviates: values with mark n: p > 0.05, read-out: Ear edema, E: hyperemia of ear lobe, % of inh.
Where [5] appears, read: read-out: Experimental pleuritis, A: volume of exudate in pleural cavity, % of inh.
Where [6] appears, read: read-out: Experimental pleuritis, B: number of cells, % of inh.
Setting [7] is: read-out: Experimental pleuritis, C: cellularity in a volume unit, % of inh.
Setting [8] is: read-out: Inh. of LTD4 rec. binding, %.

pIC50: −log10 of the molar value. Converted amounts (≈) assume the structure as drawn. Like-named read-outs stand apart in the source and are kept apart here.

One may read the pIC50 as the IC50 on a negative log10 scale, so that one unit is a factor of ten. The term IC50 denotes the midpoint of a concentration-inhibition curve.

Chain of LTB4 receptor (H0VYV8 1-348): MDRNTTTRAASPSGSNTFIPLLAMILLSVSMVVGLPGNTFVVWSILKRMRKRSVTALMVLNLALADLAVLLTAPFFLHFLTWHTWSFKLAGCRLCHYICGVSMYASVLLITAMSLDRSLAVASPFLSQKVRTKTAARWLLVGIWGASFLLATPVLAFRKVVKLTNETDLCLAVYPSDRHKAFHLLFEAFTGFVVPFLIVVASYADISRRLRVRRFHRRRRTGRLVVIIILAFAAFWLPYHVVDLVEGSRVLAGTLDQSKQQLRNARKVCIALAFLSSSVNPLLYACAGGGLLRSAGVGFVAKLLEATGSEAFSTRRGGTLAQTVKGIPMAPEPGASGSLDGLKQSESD

As for `CCCc1c(OCCCCOc2ccc(Sc3ccc([N+](=O)[O-])cc3C(=O)O)cc2)ccc(C(C)=O)c1O` [Compound 10, 2-(4-(4-(4-Acetyl-3-hydroxy-2-propylphenoxy)butoxy)phenylsulfanyl)-5-nitrobenzoic Acid], the pIC50 on LTB4 receptor is 4.89; on LTD4 receptor, 4.82. Besides, the inhibition at 20 µM at LTB4 receptor was 66%. In addition, the inhibition in vivo at 200 mg/kg with male mice (setting [3]) amounted to 20%; in the test on male mice (setting [4]), 2%. In test [1], the “Antiox. effect, % of peroxidation inhibition” value came to 14%. Moreover, the inhibition in vivo at 100 mg/kg with rats (setting [5]) is 14%; in the test with rats (setting [6]), 31%; in the test with rats (setting [7]), 19%; in the test on Wistar-Han rats, 22%. The inhibition at 100 µM at LTD4 receptor (setting [8]) is 89%. Also, the “Inh. of LTB4 biosynth., %” value in test [2] was 100%.
As for `O=C(O)c1ccc(Sc2cccc(OCc3ccc4ccccc4n3)c2)cc1` [Compound 18], the pIC50 at LTB4 receptor was 4.03; on LTD4 receptor, 5.80. Also, the inhibition at 20 µM at LTB4 receptor amounted to 24%. Moreover, the inhibition in vivo at 200 mg/kg is 13% in the test on male mice (setting [3]) and 8% in the test with male mice (setting [4]). Also, the “Antiox. effect, % of peroxidation inhibition” value in test [1] is 16%. Moreover, the inhibition in vivo at 100 mg/kg with rats (setting [5]) worked out at 28%; with rats (setting [6]), 29%; in the test with rats (setting [7]) it was 1%; in the test with Wistar-Han rats, 10%. The inhibition at 100 µM on LTD4 receptor (setting [8]) came out at 100%. Moreover, the IC50 in test [2] worked out at 0.02 µg/mL (≈ 0.0516 µM). Moreover, the “Inh. of LTB4 biosynth., %” value in test [2] was determined as 100%.
Turning to `O=C(O)Cc1ccccc1Sc1ccc(OCCCN2CCN(Cc3ccc(Cl)cc3)CC2)cc1` [Compound 27], the inhibition at 20 µM at LTB4 receptor amounted to 12%. Further, the inhibition in vivo at 200 mg/kg in the test on male mice (setting [3]) came to 7%; in the test on male mice (setting [4]), 22%. In addition, the “Antiox. effect, % of peroxidation inhibition” value in test [1] is recorded as 20%. Also, the inhibition in vivo at 100 mg/kg in the test on rats (setting [5]) is 8%; in the test with rats (setting [6]), 61%; with rats (setting [7]) it was 47%; in the test with Wistar-Han rats, 13%. Further, at LTD4 receptor (setting [8]), the inhibition at 100 µM was found to be 22%. Moreover, in test [2], the IC50 amounted to 9.2 µg/mL (≈ 18 µM). The “Inh. of LTB4 biosynth., %” value in test [2] came to 89%.
As for `CCCc1c(OCCOc2ccc(Sc3ccc(C(=O)O)cc3)cc2)ccc(C(C)=O)c1O` [Compound 1, 4-(4-(2-(4-Acetyl-3-hydroxy-2-propylphenoxy)ethyloxy)phenylsulfanyl)benzoicAcid], the negative logarithm of the IC50 (pIC50) at LTB4 receptor was 4.77; on LTD4 receptor it was 4.97. On LTB4 receptor, the inhibition at 20 µM came out at 61%. In addition, the inhibition in vivo at 200 mg/kg in the test on male mice (setting [3]) is 13%; in the test with male mice (setting [4]), 8%. Moreover, the “Antiox. effect, % of peroxidation inhibition” value in test [1] was determined as 54%. The inhibition in vivo at 100 mg/kg is 8% with rats (setting [5]), 17% with rats (setting [6]), 9% with rats (setting [7]) and 31% with Wistar-Han rats. The inhibition at 100 µM on LTD4 receptor (setting [8]) was 98%. The IC50 in test [2] is 3.5 µg/mL (≈ 7.5 µM). Besides, the “Inh. of LTB4 biosynth., %” value in test [2] came out at 100%.
For `O=C(O)Cc1ccccc1Sc1ccc(OCc2ccc3ccccc3n2)cc1` [Compound 29, 2-(4-(Quinoline-2-ylmethoxy)phenylsulfanyl)phenylacetic Acid], the negative logarithm of the IC50 (pIC50) on LTB4 receptor was 4.62; at LTD4 receptor, 6.22. In addition, the inhibition at 20 µM at LTB4 receptor is 50%. The inhibition in vivo at 200 mg/kg turned out to be 2% with male mice (setting [3]) and 22% with male mice (setting [4]). In test [1], the “Antiox. effect, % of peroxidation inhibition” value came out at 0%. The inhibition in vivo at 100 mg/kg with rats (setting [5]) is 3%; with rats (setting [6]) it was 27%; in the test on rats (setting [7]), 25%; with Wistar-Han rats it was 52%. For the same compound, on LTD4 receptor (setting [8]), the inhibition at 100 µM worked out at 95%. The IC50 in test [2] amounted to 28 µg/mL (≈ 69.7 µM). In addition, the “Inh. of LTB4 biosynth., %” value in test [2] is reported as 44%.
`CCCc1c(OCCCOc2cccc(Sc3ccccc3C(=O)O)c2)ccc(C(C)=O)c1O` [Compound 6, 2-(3-(3-(4-Acetyl-3-hydroxy-2-propylphenoxy)propoxy)phenylsulfanyl)benzoic Acid]: the pIC50 at LTB4 receptor is 4.69; at LTD4 receptor it was 5.39. Further, at LTB4 receptor, the inhibition at 20 µM worked out at 50%. The results for the inhibition in vivo at 200 mg/kg with male mice (setting [3]) and with male mice (setting [4]) were 9% and 8%, respectively. Besides, the “Antiox. effect, % of peroxidation inhibition” value in test [1] is 19%. Moreover, the inhibition in vivo at 100 mg/kg in the test with rats (setting [5]) is 26%; in the test with rats (setting [6]), 29%; with rats (setting [7]) it was 6%; in the test on Wistar-Han rats it was 22%. Besides, at LTD4 receptor (setting [8]), the inhibition at 100 µM is 100%. Besides, in test [2], the “Inh. of LTB4 biosynth., %” value is listed as 73%.
For the compound `CCCc1c(OCCCOc2ccc(Sc3ccccc3CC(=O)O)cc2)ccc(C(C)=O)c1O` [Compound 25, 2-(4-(3-(4-Acetyl-3-hydroxy-2-propylphenoxy)propoxy)phenylsulfanyl)phenylacetic Acid], the inhibition at 20 µM on LTB4 receptor was determined as 19%. For the same compound, the results for the inhibition in vivo at 200 mg/kg in the test with male mice (setting [3]) and with male mice (setting [4]) were 20% and 16%, respectively. Besides, the “Antiox. effect, % of peroxidation inhibition” value in test [1] amounted to 23%. For the same compound, the inhibition in vivo at 100 mg/kg in the test on rats (setting [5]) stood at 4%; in the test on rats (setting [6]) it was 38%; in the test on rats (setting [7]), 44%; in the test on Wistar-Han rats, 7%. Moreover, the pIC50 at LTD4 receptor was 4.43. At LTD4 receptor (setting [8]), the inhibition at 100 µM amounted to 71%. In test [2], the “Inh. of LTB4 biosynth., %” value came to 100%.
With `O=C(O)Cc1ccccc1Sc1cccc(OCCCN2CCN(Cc3ccc(Cl)cc3)CC2)c1` [Compound 28, Dihydrogenmaleate of 2-(3-(3-(1-(4-Chlorobenzyl)piperazin-4-yl)-propoxy)phenylsulfanyl)phenylacetic Acid], on LTB4 receptor, the pIC50 is 5.10. Also, the inhibition at 20 µM on LTB4 receptor turned out to be 69%; at LTD4 receptor (at 20 μM, read-out: Inh. of LTD4 rec. binding, %), 10%. Moreover, the results for the inhibition in vivo at 200 mg/kg in the test on male mice (setting [3]) and in the test on male mice (setting [4]) were 16% and 19%, respectively. In addition, the “Antiox. effect, % of peroxidation inhibition” value in test [1] worked out at 3%. Moreover, the inhibition in vivo at 100 mg/kg in the test with rats (setting [5]) was 10%; in the test with rats (setting [6]) it was 21%; with rats (setting [7]), 14%; in the test with Wistar-Han rats, 18%. The IC50 in test [2] worked out at 0.6 µg/mL (≈ 1.17 µM). The “Inh. of LTB4 biosynth., %” value in test [2] came out at 100%.
